From patent publication EP0071535B1, “(4-(2 and/or 3-Thienylacetamido)-phenoxy)-hydroxyaminopropanes, their preparation, their therapeutic use and intermediates” (CARPIBEM (CENTRE D'ACTIVITE ET DE RECHERCHE PHARMACEUTIQUE …, priority 1981, dated 1983)

Tests used:
[1] = test system: effets β1 (augmentation de la force contractile du myocarde) de l'isoprénaline; assay: β-blocking activity: inhibition of the β1 effects of intravenous isoprenaline in anaesthetised dogs; type: in vivo, chiens; conditions: dog; for inhibition at 0.001 mg/kg / inhibition at 0.003 mg/kg / inhibition at 0.01 mg/kg / inhibition at 0.1 mg/kg: Canis lupus familiaris, iv, inhibition given with negative sign, read-out: % d'inhibition des effets β1^(+) de l'Isoprénaline; for inhibition at 0.001 mg/kg: 0,001 mg/kg I.V.; for inhibition at 0.003 mg/kg: 0,003 mg/kg I.V.; for inhibition at 0.01 mg/kg: 0,010 mg/kg I.V.; for inhibition at 0.1 mg/kg: 0,100 mg/kg I.V.
Method: (§1) Des chiens tout-venants mâles ou femelles sont anesthésiés au mébubarbital sodique (30 mg/kg I.V.) et ventilés artificiellement par une pompe Pesty RPP. Ils sont supplémentés en oxygène.
(§2) On mesure: • - la pression carotidienne systolique et diastolique • - la force contractile du myocarde.
(§3) Les signaux sont amplifiés et enregistrés sur Dynograph Beckman.
(§4) L'activité β bloquante adrénergique a été étudiée vis-à-vis des effets β1 (augmentation de la force contractile du myocarde) et des effets P2 (diminution de la pression artérielle disstolique) de l'isoprénaline administrée par voie intraveineuse.
(§5) On calcule le pourcentsge d'inhibition des effets β1 et des effets β2 de l'isoprénaline en fonction des doses (mg.kg I.V.) des différents exemples.
(§6) Les exemples sont injectés dans le veine saphène aux doses (exprimées en base) de: 0,0003 0,001 0,003 0,01 0,1 1,0 et 4,0 ou 8,0 mg.kg-1.

[2] = test system: effets β2 (diminution de la pression artérielle diastolique) de l'isoprénaline; assay: β-blocking activity: inhibition of the β2 effects of intravenous isoprenaline in anaesthetised dogs; type: in vivo, chiens; conditions: dog; for inhibition at 0.001 mg/kg / inhibition at 0.003 mg/kg / inhibition at 0.01 mg/kg / inhibition at 0.1 mg/kg: Canis lupus familiaris, iv, inhibition given with negative sign, read-out: % d'inhibition des effets β2^⊕ de l'Isoprénaline; for inhibition at 0.001 mg/kg: 0,001 mg/kg I.V.; for inhibition at 0.003 mg/kg: 0,003 mg/kg I.V.; for inhibition at 0.01 mg/kg: 0,010 mg/kg I.V.; for inhibition at 0.1 mg/kg: 0,100 mg/kg I.V.
Method: as §1, §2, §3, §4, §5, §6

[3] = test system: rat génétiquement hypertendu: Rat OKAMOTO; assay: Antihypertensive activity in spontaneously hypertensive rats (tail-cuff systolic pressure and heart rate after oral dosing); type: in vivo
Method: Des rats mâles âgés de 13 à 21 semaines présentant une hypertension spontanée génétiquement transmissible (souche OKAMOTO provenance IFFA CREDO) sont placés dans une enceinte thermostatée à 38°C. Les rats sont laissés en situation libre. La pression artérielle est mesurée par un sphygmomanomètre Narco Biosystem. Un manchon est placé à la base de la queue et un détecteur enregistre le pouls en aval du manchon. Celui-ci est gonflé jusqu'à suppression du pouls il est ensuite progressivement dégonflé. La pression mesurée à la reprise des battements cardiaques est la pression artérielle systolique. On calcule la fréquence cardiaque à partir de l'enregistrement du pouls artériel. Les produits à étudiar sont mis en suspension el administrés par voie orale sous un volume de 1 ml pour 100 g de poids corporel. Les mesures sont répétées à intervalles réguliers.
Les valeurs moyennes avant traitement pour les différents lots de rats sont pour la pression artérielle systolique de 190 à 200 mmHg et pour la fréquence cardiaque de 305 à 350 battements par minute.
Le tableau III ci-après donne la moyenne des variations de la pression systolique (mmHg) de la fréquence cardisque (battements/minute) et les écarts type à la moyenne obtenus 1 heure 3 heures et 5 heures après administration orale.

[4] = 0.001 mg.kg^-1 voie intraveineuse
[5] = 0.003 mg.kg^-1 voie intraveineuse
[6] = 0.01 mg.kg^-1 voie intraveineuse
[7] = 0.1 mg.kg^-1 voie intraveineuse
[8] = 1.0 mg.kg^-1 voie intraveineuse
[9] = 8.0 mg.kg^-1 voie intraveineuse
[10] = 128 mg.kg^-1 V.O, T+5 heures, mean
[11] = 4.0 mg.kg^-1 voie intraveineuse

| SMILES | Pourcentages d'inhibition des effets β1 de l'Isoprénaline [1, 4] | Pourcentages d'inhibition des effets β1 de l'Isoprénaline [1, 5] | Pourcentages d'inhibition des effets β1 de l'Isoprénaline [1, 6] | Pourcentages d'inhibition des effets β1 de l'Isoprénaline [1, 7] | Pourcentages d'inhibition des effets β1 de l'Isoprénaline [1, 8] | Pourcentages d'inhibition des effets β1 de l'Isoprénaline [1, 9] | inhibition at 0.001 mg/kg [1] | inhibition at 0.003 mg/kg [1] | inhibition at 0.01 mg/kg [1] | inhibition at 0.1 mg/kg [1] | Pourcentages d'inhibition des effets β2 de l'Isoprénaline [2, 6] | Pourcentages d'inhibition des effets β2 de l'Isoprénaline [2, 7] | Pourcentages d'inhibition des effets β2 de l'Isoprénaline [2, 8] | Pourcentages d'inhibition des effets β2 de l'Isoprénaline [2, 9] | inhibition at 0.001 mg/kg [2] | inhibition at 0.003 mg/kg [2] | inhibition at 0.01 mg/kg [2] | inhibition at 0.1 mg/kg [2] | Fréquence cardiaque Δ (battements/min) T+1 heure m (sm) ([3]; 128 mg.kg^-1 V.O) | Pression systolique Δ (mmHg) T+1 heure m (sm) ([3]; 128 mg.kg^-1 V.O) | further results |
| --- | --- | --- | --- | --- | --- | --- | --- | --- | --- | --- | --- | --- | --- | --- | --- | --- | --- | --- | --- | --- | --- |
| CC(C)(C)NCC(O)COc1ccc(NC(=O)Cc2cccs2)cc1C#N (stereo not drawn) [exemple 7, 1-[2-cyano 4-(2-thiénylacétamido)phénoxy] 3-terbutylamino 2-propanol] | 24% | 70% | 86% | 100% | 100% | 100% | -24% | -70% | -86% | -100% | 16% | 36% | 88% | 100% | 0% | -4% | -16% | -36% | +36 (4) battements/min | -27 (5) mmHg | Pourcentages d'inhibition des effets β2 de l'Isoprénaline [2, 5]: 4%; Pression systolique Δ (mmHg) T+1 heure m ([3]; 128 mg.kg^-1 V.O, mean): -27 mmHg; Fréquence cardiaque Δ (battements/min) T+3 heures m (sm) ([3]; 128 mg.kg^-1 V.O): +29 (4) battements/min; Pression systolique Δ (mmHg) T+3 heures m (sm) ([3]; 128 mg.kg^-1 V.O): -27 (5) mmHg; Fréquence cardiaque Δ (battements/minute) T + 3 heures m ([3]; 128 mg.kg^-1 V.O, mean): +29 battements/minute; Pression systolique Δ (mmHg) T+3 heures m ([3]; 128 mg.kg^-1 V.O, mean): -27 mmHg; Fréquence cardiaque Δ (battements/min) T+5 heures m (sm) ([3]; 128 mg.kg^-1 V.O, T+5 heures): +25 (9) battements/min; Pression systolique Δ (mmHg) T+5 heures m (sm) ([3]; 128 mg.kg^-1 V.O, T+5 heures): -31 (5) mmHg; Pression systolique Δ (mmHg) T+5 heures m [3, 10]: -31 mmHg |
| CC(C)NCC(O)COc1ccc(NC(=O)Cc2cccs2)cc1C#N (stereo not drawn) [exemple 8, 1-[2-cyano 4-(2-thiénylacétamido)phénoxy] 3-isopropylamino 2-propanol] | 5% | 12% | 38% | 64% | 86% | – | -5% | -12% | -38% | -64% | – | – | 16% | – | 0% | 0% | 0% | 0% | +31 (11) battements/min | -39 (8) mmHg | Pourcentages d'inhibition des effets β1 de l'Isoprénaline [1, 11]: 100%; Pourcentages d'inhibition des effets β2 de l'Isoprénaline [2, 11]: 100%; Pression systolique Δ (mmHg) T+1 heure m ([3]; 128 mg.kg^-1 V.O, mean): -39 mmHg; Fréquence cardiaque Δ (battements/min) T+3 heures m (sm) ([3]; 128 mg.kg^-1 V.O): +36 (7) battements/min; Pression systolique Δ (mmHg) T+3 heures m (sm) ([3]; 128 mg.kg^-1 V.O): -31 (9) mmHg; Fréquence cardiaque Δ (battements/minute) T + 3 heures m ([3]; 128 mg.kg^-1 V.O, mean): +36 battements/minute; Pression systolique Δ (mmHg) T+3 heures m ([3]; 128 mg.kg^-1 V.O, mean): -31 mmHg; Fréquence cardiaque Δ (battements/min) T+5 heures m (sm) ([3]; 128 mg.kg^-1 V.O, T+5 heures): +12 (13) battements/min; Pression systolique Δ (mmHg) T+5 heures m (sm) ([3]; 128 mg.kg^-1 V.O, T+5 heures): -25 (5) mmHg; Fréquence cardiaque Δ (battements/minute) T + 5 heures m [3, 10]: +12 battements/minute; Pression systolique Δ (mmHg) T+5 heures m [3, 10]: -25 mmHg |
| CC(C)(C)NCC(O)COc1ccc(NC(=O)Cc2ccsc2)cc1C#N (stereo not drawn) [exemple 9, 1-[2-cyano 4-(3-thiénylacétamido)phénoxy] 3-terbutylamino 2-propanol] | 22% | 74% | 91% | 100% | 100% | 100% | -22% | -74% | -91% | -100% | 8% | 42% | 100% | 100% | 0% | 0% | -8% | -42% | – | – | Fréquence cardiaque Δ (battements/min) T+1 heure m (sm) ([3]; 64 mg.kg^-1 V.O): +27 (11) battements/min; Pression systolique Δ (mmHg) T+1 heure m (sm) ([3]; 64 mg.kg^-1 V.O): -16 (4) mmHg; Fréquence cardiaque Δ (battements/min) T+3 heures m (sm) ([3]; 64 mg.kg^-1 V.O): +13 (13) battements/min; Pression systolique Δ (mmHg) T+3 heures m (sm) ([3]; 64 mg.kg^-1 V.O): -25 (8) mmHg; Fréquence cardiaque Δ (battements/min) T+5 heures m (sm) ([3]; 64 mg.kg^-1 V.O, T+5 heures): +13 (13) battements/min; Pression systolique Δ (mmHg) T+5 heures m (sm) ([3]; 64 mg.kg^-1 V.O, T+5 heures): -38 (6) mmHg |
| CC(C)NCC(O)COc1ccc(NC(=O)Cc2ccsc2)cc1Cl (stereo not drawn) [exemple 46, 1-[2-chloro 4-(3-thiénylacétamido)phénoxy] 3-isopro-pylamino 2-propanol] | – | – | – | – | – | – | -17% | -44% | -84% | -100% | – | – | – | – | -5% | -5% | -20% | -19% | – | – | – |
| CC(C)(C)NCC(O)COc1ccc(NC(=O)Cc2cccs2)cc1F (stereo not drawn) [exemple 47, 1-[2-fluoro 4-(2-thiénylscétamido)phénoxy] 3-terbutylamino 2-propanol] | – | – | – | – | – | – | -12% | -33% | -66% | -96% | – | – | – | – | -24% | -4% | 0% | -12% | – | – | – |
